Tests used:
[1] = target: Mushroom-derived tyrosinase; test: Inhibitory effect of tyrosinase activity; format: biochemical; conditions: L-tyrosine substrate, 20 minutes at 37° C., absorbance at 490 nm
Protocol: In order to compare the skin brightening effects of ginsenosides isolated from the ginseng seed extract, the inhibitory effect of the tyrosinase activity was evaluated as follows. Mushroom-derived tyrosinase and tyrosine were obtained from Sigma Chemical. […] Tyrosinase activity was assessed by measuring the absorbance at 490 nm using a microplate reader (Bio-Rad 3550, Richmond, Calif., U.S.A.) after an enzyme reaction for 20 minutes at 37° C.

Mel-Ab cell line = test: Melanin production inhibition (Dooley's method); format: cell-based, C57BL/6; conditions: Mel-Ab cells, after 5 days, absorbance at 400 nm

Compound | IC50 (ppm), inhibitory effect of tyrosinase activity [1] | IC50 (ppm), concentration required to reduce melanin production in melanocytes by half (Mel-Ab cell line)
OC[C@H]1O[C@@H](Oc2ccc(O)cc2)[C@H](O)[C@@H](O)[C@@H]1O [Arbutin, arbutin] | 149 ppm | –
CC(C)=CCC[C@](C)(O[C@@H]1O[C@H](CO)[C@@H](O)[C@H](O)[C@H]1O)[C@H]1CC[C@]2(C)[C@@H]1[C@H](O)C[C@@H]1[C@@]3(C)CC[C@H](O)C(C)(C)[C@@H]3[C@@H](O[C@@H]3O[C@H](CO)[C@@H](O)[C@H](O)[C@H]3O)C[C@]12C [GS#01, ginsenoside Rg1] | 23 ppm | 37 ppm
CC(C)=CCC[C@](C)(O)[C@H]1CC[C@]2(C)[C@@H]1[C@H](O)C[C@@H]1[C@@]3(C)CC[C@H](O)C(C)(C)[C@@H]3[C@@H](O[C@@H]3O[C@H](CO)[C@@H](O)[C@H](O)[C@H]3O[C@@H]3O[C@@H](C)[C@H](O)[C@@H](O)[C@H]3O)C[C@]12C [GS#02, ginsenoside Rg2] | 30 ppm | 35 ppm
CC(C)=CCC[C@](C)(O[C@@H]1O[C@H](CO)[C@@H](O)[C@H](O)[C@H]1O)[C@H]1CC[C@]2(C)[C@@H]1[C@H](O)C[C@@H]1[C@@]3(C)CC[C@H](O)C(C)(C)[C@@H]3[C@@H](O[C@@H]3O[C@H](CO)[C@@H](O)[C@H](O)[C@H]3O[C@@H]3O[C@@H](C)[C@H](O)[C@@H](O)[C@H]3O)C[C@]12C [GS#03, ginsenoside Re] | 27 ppm | 39 ppm
CC(C)=CCC[C@](C)(O[C@@H]1O[C@H](CO)[C@@H](O)[C@H](O)[C@H]1O)[C@H]1CC[C@]2(C)[C@@H]1[C@H](O)C[C@@H]1[C@@]3(C)CC[C@H](O[C@@H]4O[C@H](CO)[C@@H](O)[C@H](O)[C@H]4O[C@@H]4O[C@H](CO)[C@@H](O)[C@H](O)[C@H]4O)C(C)(C)[C@@H]3CC[C@]12C [GS#04, ginsenoside Rd] | 31 ppm | 38 ppm
CC(C)=CCC[C@](C)(O[C@@H]1O[C@H](CO[C@@H]2O[C@H](CO)[C@@H](O)[C@H](O)[C@H]2O)[C@@H](O)[C@H](O)[C@H]1O)[C@H]1CC[C@]2(C)[C@@H]1[C@H](O)C[C@@H]1[C@@]3(C)CC[C@H](O[C@@H]4O[C@H](CO)[C@@H](O)[C@H](O)[C@H]4O[C@@H]4O[C@H](CO)[C@@H](O)[C@H](O)[C@H]4O)C(C)(C)[C@@H]3CC[C@]12C [GS#05, ginsenoside Rb1] | 47 ppm | 57 ppm
CC(C)=CCC[C@](C)(O[C@@H]1O[C@H](CO[C@@H]2OC[C@H](O)[C@H](O)[C@H]2O)[C@@H](O)[C@H](O)[C@H]1O)[C@H]1CC[C@]2(C)[C@@H]1[C@H](O)C[C@@H]1[C@@]3(C)CC[C@H](O[C@@H]4O[C@H](CO)[C@@H](O)[C@H](O)[C@H]4O[C@@H]4O[C@H](CO)[C@@H](O)[C@H](O)[C@H]4O)C(C)(C)[C@@H]3CC[C@]12C [GS#06, ginsenoside Rb2] | 53 ppm | 54 ppm
O=c1cc(CO)occ1O [Kojic acid, kojic acid] | – | 39 ppm

From patent publication US10722442B2, “Skin brightening composition comprising novel ginsenoside” (AMOREPACIFIC CORPORATION, priority 2018, dated 2020)
